Test results from patent US20080166805A1, “Culturing human cells and tissues in an N-glycolylneuraminic acid-free environment” (The Regents of the University of California, priority 2005, published 2008).

What was measured:
Format in all cases: cell-based
[1] = tested on: human neuroblastoma cells; experiment: Neu5Gc feeding experiment, human neuroblastoma cells; conditions: neuroblastoma cells fed 3 mM for 3 days
Method: (§1) Neu5Gc and ManNGc Feeding Experiment—Neu5Ac, Neu5Gc or ManNGc were dried, dissolved in the appropriate media supplemented with heat-inactivated human serum, sterilized using a Spin-X® (Corning Inc., Corning, N.Y.) and then added to the cells. The pH of the media containing Sia was adjusted to neutrality using sterilized 1M NaOH before starting the feeding experiment. Cells were cultured in the presence of up to 3 mM free Sia or ManNGc for 1 or 3 days at 37° C. At the end of the feeding, cells were washed with cold PBS, harvested either by scraping or with 2 mM EDTA for fibroblasts, and washed again with cold PBS prior to fractionation.
Fractionation of the Labeled Cells—Washed cell pellets were sonicated into 500 μL of 20 mM sodium phosphate buffer or 20 mM Tris-HCl, pH 7.5, using 4×15 second pulses of a sonicator cell disrupter, model Some Dismembrator (Fisher Scientific, Hampton, N.J.) at a probe setting of 3. […] The pellet contained <5% of the incorporated sialic acid as determined using a radioactive tracer (data not shown.) The supernatant was therefore considered as the “total homogenate” fraction. A portion (20%) of the “total homogenate” fraction was taken for protein quantification and Sia analysis by DMB derivatization and HPLC analysis (as discussed below.) The remainder was centrifuged at 100,000×g for 1 h. […]

[2] = tested on: lysosomal sialic acid transporter mutant human fibroblasts (GM08496); experiment: Neu5Gc/ManNGc feeding, lysosomal sialic acid transporter mutant fibroblasts GM08496; conditions: GM08496 (Salla disease) fibroblasts fed 3 mM for 3 days
Source text: (§2) Cell Lines—Caco-2 cells (human epithelial cells isolated from a primary colon carcinoma), normal human skin fibroblasts (CCD-919-SK) and chinese hamster ovary (CHO-K1) cells were purchased from ATCC (Manassas, Va.) Mutant human skin fibroblasts (GM05520, GM08496 and GM01718) were obtained from the Coriell Institute for Medical Research (Camden, N.J.) Chimpanzee Fred and human […] EBV-transformed lymphoblasts were a gift from Dr. Peter Parham, Stanford University, CA. […]
(§3) Fractionation of the Labeled Cells—Washed cell pellets were sonicated into 500 μL of 20 mM sodium phosphate buffer or 20 mM Tris-HCl, pH 7.5, using 4×15 second pulses of a sonicator cell disrupter, model Some Dismembrator (Fisher Scientific, Hampton, N.J.) at a probe setting of 3. […] The pellet contained <5% of the incorporated sialic acid as determined using a radioactive tracer (data not shown.) The supernatant was therefore considered as the “total homogenate” fraction. A portion (20%) of the “total homogenate” fraction was taken for protein quantification and Sia analysis by DMB derivatization and HPLC analysis (as discussed below.) The remainder was centrifuged at 100,000×g for 1 h. […] All the Sias in these fractions were released with mild acid hydrolysis if necessary and then analyzed by HPLC after DMB derivatization. […]

[3] = tested on: lysosomal sialic acid transporter mutant human fibroblasts (GM05520); experiment: Neu5Gc/ManNGc feeding, lysosomal sialic acid transporter mutant fibroblasts GM05520; conditions: GM05520 (ISSD) fibroblasts fed 3 mM for 3 days
Source text: as §2, §3

[4] = tested on: human LB EBV-transformed lymphoblasts; experiment: Neu5Gc/Neu5Ac feeding experiment, human EBV-transformed lymphoblasts; conditions: human lymphoblasts fed 3 mM for 3 days
Method: (§4) Cell Culture—Caco-2 cells were propagated in alpha-MEM containing GLUTAMAX™ (Invitrogen, San Diego, Calif.) and a mixture of ribonucleosides and deoxyribonucleosides (Gibco/Invitrogen, San Diego, Calif.) supplemented with 20% FCS. All the fibroblast cell lines and CHO-K1 cells were cultured in the same media supplemented respectively with 15% non-heat inactivated FCS or 10% heat inactivated FCS. Chimpanzee Fred and human […] EBV-transformed lymphoblasts were cultured in RPMI-1640 (Gibco/Invitrogen, San Diego, Calif.) supplemented with 10% heat inactivated FCS or 15% human serum. All of the cultures were maintained at 37° C., 5% CO2 atmosphere. In order to deplete any remaining Neu5Gc from FCS, the cells were split and cultured prior to Neu5Gc feeding experiments for at least 4 days in alpha-MEM supplemented with an adequate percentage of heat-inactivated premium human serum instead of FCS. The cells were then maintained under the same conditions during the whole feeding experiment. The human serum was heat inactivated at 56° C. for 30 min. before use.
Neu5Gc and ManNGc Feeding Experiment—Neu5Ac, Neu5Gc or ManNGc were dried, dissolved in the appropriate media supplemented with heat-inactivated human serum, sterilized using a Spin-X® (Corning Inc., Corning, N.Y.) and then added to the cells. The pH of the media containing Sia was adjusted to neutrality using sterilized 1M NaOH before starting the feeding experiment. Cells were cultured in the presence of up to 3 mM free Sia or ManNGc for 1 or 3 days at 37° C. […]
Fractionation of the Labeled Cells—Washed cell pellets were sonicated into 500 μL of 20 mM sodium phosphate buffer or 20 mM Tris-HCl, pH 7.5, using 4×15 second pulses of a sonicator cell disrupter, model Some Dismembrator (Fisher Scientific, Hampton, N.J.) at a probe setting of 3. […] The pellet contained <5% of the incorporated sialic acid as determined using a radioactive tracer (data not shown.) The supernatant was therefore considered as the “total homogenate” fraction. A portion (20%) of the “total homogenate” fraction was taken for protein quantification and Sia analysis by DMB derivatization and HPLC analysis (as discussed below.) The remainder was centrifuged at 100,000×g for 1 h. […] All the Sias in these fractions were released with mild acid hydrolysis if necessary and then analyzed by HPLC after DMB derivatization. Protein quantification was performed on the total homogenate, membrane and soluble protein fractions by using the BCA protein assay kit from Pierce (Rockford, Ill.) In some experiments, the resulting data obtained for the Sia bound to the membrane fraction and to the soluble proteins were pooled and presented here as a High Molecular Weight (HMW) fraction. […]

[5] = tested on: normal human skin fibroblasts (WT); experiment: Neu5Gc/ManNGc feeding experiment, normal human skin fibroblasts
Method: as §4, §1
Fractionation of the Labeled Cells—Washed cell pellets were sonicated into 500 μL of 20 mM sodium phosphate buffer or 20 mM Tris-HCl, pH 7.5, using 4×15 second pulses of a sonicator cell disrupter, model Some Dismembrator (Fisher Scientific, Hampton, N.J.) at a probe setting of 3. The sonicate was centrifuged at 75×g for 15 min., and the pellet obtained consisted primarily of nuclei and unbroken cells. The pellet contained <5% of the incorporated sialic acid as determined using a radioactive tracer (data not shown.) The supernatant was therefore considered as the “total homogenate” fraction. A portion (20%) of the “total homogenate” fraction was taken for protein quantification and Sia analysis by DMB derivatization and HPLC analysis (as discussed below.) The remainder was centrifuged at 100,000×g for 1 h. The resulting pellet, called the “membrane” fraction, was then resuspended by sonication (15 sec.) in 200 μl of sodium acetate buffer, pH 5.5. The 100,000×g supernatant, called the “soluble” fraction was adjusted to 90% ethanol using absolute ice-cold ethanol, and placed overnight at −20° C. The flocculant precipitate, which represents the “soluble protein” fraction, was washed 3 times with 90% ice-cold ethanol and then resuspended in 200 μl of water. […] All the Sias in these fractions were released with mild acid hydrolysis if necessary and then analyzed by HPLC after DMB derivatization. Protein quantification was performed on the total homogenate, membrane and soluble protein fractions by using the BCA protein assay kit from Pierce (Rockford, Ill.) In some experiments, the resulting data obtained for the Sia bound to the membrane fraction and to the soluble proteins were pooled and presented here as a High Molecular Weight (HMW) fraction. […]

[6] = normal fibroblasts fed 3 mM for 3 days

O=C(CO)N[C@H]1[C@H]([C@H](O)[C@H](O)CO)OC(O)(C(=O)O)C[C@@H]1O (stereo partly shown) [Neu5Gc, N-glycolylneuraminic acid]
Neu5Gc incorporation efficiency [1]: efficiency comparable to the Caco-2 cells
percent of Neu5Gc in membrane-bound glycoconjugates [2]: 16%
percent of Neu5Gc in membrane-bound glycoconjugates [3]: 5%
Neu5Gc as percent of total Sia, HMW fraction [4]: 51%
Neu5Gc as percent of total Sia, LMW cytosolic fraction [4]: 80%
Neu5Gc as percent of total Sia, TH fraction [4]: 67%
Neu5Gc as percent of total Sia, HMW fraction [5, 6]: 39%
Neu5Gc as percent of total Sia, TH fraction [5, 6]: 28%
Neu5Gc as percent of total Sia, cytosolic LMW fraction [5, 6]: 41%
percent of Neu5Gc incorporation into membrane-bound glycoconjugates ([5]; normal wild-type (WT) fibroblasts fed 3 mM for 3 days): 37%
